The target in the assay is T1, Lmo1603 (Listeria monocytogenes, UniProt Q8Y6T0).
T1 construct: tag removal not mentioned
In words: p-nitroaniline release, absorbance […] nm. The assay is classed as biochemical. The following applies: 50 mM Tris-HCl pH 8.5, 2 mM substrate, 5 uM enzyme, 12 h.

These results are taken from paper PMC4661694, “Aminopeptidase T of M29 Family Acts as A Novel Intracellular Virulence Factor for Listeria monocytogenes Infection” (Scientific Reports, 2015).

T1 sequence (Q8Y6T0 entry or part of it): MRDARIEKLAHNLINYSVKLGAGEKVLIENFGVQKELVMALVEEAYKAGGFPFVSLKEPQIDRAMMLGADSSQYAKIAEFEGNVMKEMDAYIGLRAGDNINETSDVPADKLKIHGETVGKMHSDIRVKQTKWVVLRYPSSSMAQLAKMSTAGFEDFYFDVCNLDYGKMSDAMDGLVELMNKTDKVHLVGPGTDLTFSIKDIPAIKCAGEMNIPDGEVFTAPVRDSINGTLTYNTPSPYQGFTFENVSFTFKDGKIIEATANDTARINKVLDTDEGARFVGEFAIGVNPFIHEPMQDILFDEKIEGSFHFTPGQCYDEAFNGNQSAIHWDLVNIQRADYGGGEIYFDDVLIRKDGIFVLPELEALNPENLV

As to `N=C(N)NCCC[C@H](N)C(=O)Nc1ccc([N+](=O)[O-])cc1` [Arg-pNA], the “p-nitroaniline release, absorbance 405 nm” value (cobalt-activated enzyme) is “Lmo1603 showed the highest activity towards Arg-pNA, followed by Leu-pNA and Ala-pNA”.

Turning to `CC(C)C[C@H](N)C(=O)Nc1ccc([N+](=O)[O-])cc1` [Leu-pNA], the “p-nitroaniline release, absorbance 405 nm” value is “Lmo1603 showed the highest activity towards Arg-pNA, followed by Leu-pNA and Ala-pNA”.
